In ChEMBL document CHEMBL1151978, “Epiquinamide: a poison that wasn't from a frog that was” (J Nat Prod, 2009) one finds Activity data, which are given here for two compounds.

SMILES strings stand for the structures. The source made the active and inactive calls. The rule behind the calls is not given here.

Experiment [1] addresses T1, Neuronal acetylcholine receptor; alpha3/beta4 (Rattus norvegicus) (UniProt P04757+P12392). The experiment is described as follows: Inhibition of rat alpha3beta4 nicotinic acetylcholine receptor activation expressed in HEK293 cells assessed as intracellular calcium level up to 100 uM by fluorescence assay. In kind it is cell-based.
For experiment [2], the target named is T2, Neuronal acetylcholine receptor; alpha4/beta2 (Rattus norvegicus) (UniProt P09483+P12390). Briefly: Displacement of [3H]epibatidine from alpha4beta2 nicotinic acetylcholine receptor in rat cerebral cortical membrane up to 100 uM. In kind it is cell membranes. For orientation: Loss of bound radioactivity is the signal in a displacement assay; it reports binding, not function.

Experiment [3] deals with T1, Neuronal acetylcholine receptor; alpha3/beta4 (Rattus norvegicus). Briefly: Inhibition of rat alpha3beta4 nicotinic acetylcholine receptor activation expressed in HEK293 cells assessed as intracellular calcium level at 500 uM by fluorescence assay. The format is cell-based. On the technique in general: Calcium assays in cells follow changes in intracellular calcium, usually with a dye or a luminescent sensor.

The target in experiment [4] is T2, Neuronal acetylcholine receptor; alpha4/beta2 (Rattus norvegicus). The experiment is described as follows: Displacement of [3H]epibatidine from alpha4beta2 nicotinic acetylcholine receptor in rat cerebral cortical membrane at 100 uM. The format is cell membranes.

Take `O=C(O)[C@@H]1CCCN2CCCC[C@H]12`: the outcome in experiment [1] and in experiment [2] was inactive.

For the compound `O=[N+]([O-])[C@H]1CCCN2CCCC[C@H]12`, the outcome in experiment [3] and in experiment [4] was inactive.
